# Measurements published in PubChem BioAssay (NCI).
#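 1) Cells in 96-well plates. 2) Compound, 48 h, 5 concentrations. 3) Linear interpolation between surrounding doses. 4) Unreached endpoint = highest concentration. The concentration for 50% growth inhibition is given as GI50. At the TGI there is no net growth.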
# What was measured:
# Test in all cases: NCI-60 cell line screen, 48 h
# [1] = tested on: SF-268 CNS
# [2] = tested on: KM12 colon
# [3] = tested on: HT29 colon
# [4] = tested on: MDA-MB-231 breast
# [5] = tested on: OVCAR-4 ovarian
# [6] = tested on: LOX IMVI melanoma
# [7] = tested on: CAKI-1 renal
# [8] = tested on: SF-539 CNS
# [9] = tested on: SR leukemia
# [10] = tested on: SNB-19 CNS
# [11] = tested on: SK-OV-3 ovarian
# [12] = tested on: UACC-257 melanoma
# [13] = tested on: OVCAR-8 ovarian
# [14] = tested on: OVCAR-3 ovarian
# [15] = tested on: SF-295 CNS
# [16] = tested on: HCT-116 colon
# [17] = tested on: NCI-H460 lung
# [18] = tested on: HCT-15 colon
# [19] = tested on: COLO 205 colon
# [20] = tested on: SN12C renal
# [21] = tested on: IGROV1 ovarian
# [22] = tested on: U251 CNS
# [23] = tested on: BT-549 breast
# [24] = tested on: T-47D breast
# [25] = tested on: K-562 leukemia
# [26] = tested on: HCC-2998 colon
# [27] = tested on: NCI-H23 lung
# [28] = tested on: EKVX NSCLC
# [29] = tested on: HOP-62 NSCLC
# [30] = tested on: MDA-MB-435
# [31] = tested on: OVCAR-5 ovarian
# [32] = tested on: NCI-H522 lung
# [33] = tested on: RXF 393 renal
# [34] = tested on: NCI/ADR-RES ovarian
# [35] = tested on: TK-10 renal
# [36] = tested on: SK-MEL-5 melanoma
# [37] = tested on: RPMI-8226 leukemia
# [38] = tested on: MCF7 breast
# [39] = tested on: A498 renal
# [40] = tested on: HL-60(TB) leukemia
# [41] = tested on: SW-620 colon
# [42] = tested on: MOLT-4 leukemia
# [43] = tested on: MALME-3M melanoma
# [44] = tested on: UACC-62 melanoma
# [45] = tested on: CCRF-CEM leukemia
# [46] = tested on: 786-0 renal
# [47] = tested on: HS 578T breast
# [48] = tested on: HOP-92 NSCLC
# [49] = tested on: DU-145 prostate
# [50] = tested on: ACHN renal
# [51] = tested on: A549 NSCLC
# [52] = tested on: UO-31 renal
# [53] = tested on: SNB-75 CNS
# [54] = tested on: NCI-H226 lung
# [55] = tested on: SK-MEL-28 melanoma
# [56] = tested on: PC-3 prostate
# [57] = tested on: M14 melanoma
compound,measurement,setting,value
COc1cc2c(cc1OCc1ccccc1)N=C[C@@H]1C/C(=C/C(=O)NCCCN3C(=O)c4cccc5cccc(c45)C3=O)CN1C2=O,GI50,[1],314 nM
same,TGI,[1],5010 nM
same,GI50,[2],1090 nM
same,TGI,[2],6590 nM
same,GI50,[3],825 nM
same,TGI,[3],> 100000 nM
same,GI50,[4],708 nM
same,TGI,[4],6140 nM
same,GI50,[5],2630 nM
same,TGI,[5],> 100000 nM
same,GI50,[6],277 nM
same,TGI,[6],> 35800 nM
same,GI50,[7],2140 nM
same,TGI,[7],19700 nM
same,GI50,[8],332 nM
same,TGI,[8],1470 nM
same,GI50,[9],> 100000 nM
same,TGI,[9],> 100000 nM
same,GI50,[10],348 nM
same,TGI,[10],> 56700 nM
same,GI50,[11],8350 nM
same,TGI,[11],33500 nM
same,GI50,[12],2260 nM
same,GI50,[13],1220 nM
same,GI50,[14],273 nM
same,TGI,[14],3720 nM
same,GI50,[15],630 nM
same,TGI,[15],9490 nM
same,GI50,[16],538 nM
same,TGI,[16],> 100000 nM
same,GI50,[17],603 nM
same,TGI,[17],7150 nM
same,GI50,[18],3960 nM
same,TGI,[18],> 100000 nM
same,GI50,[19],1560 nM
same,TGI,[19],4810 nM
same,GI50,[20],346 nM
same,TGI,[20],2400 nM
same,GI50,[21],468 nM
same,GI50,[22],444 nM
same,TGI,[22],> 100000 nM
same,GI50,[23],273 nM
same,TGI,[23],1080 nM
same,GI50,[24],137 nM
same,TGI,[24],3060 nM
same,GI50,[25],424 nM
same,TGI,[25],> 100000 nM
same,GI50,[26],142 nM
same,TGI,[26],1260 nM
same,GI50,[27],352 nM
same,TGI,[27],1890 nM
same,GI50,[28],1750 nM
same,TGI,[28],6170 nM
same,GI50,[29],583 nM
same,TGI,[29],> 40300 nM
same,GI50,[30],673 nM
same,TGI,[30],3050 nM
same,GI50,[31],617 nM
same,TGI,[31],14400 nM
same,GI50,[32],228 nM
same,GI50,[33],231 nM
same,TGI,[33],651 nM
same,GI50,[34],12800 nM
same,TGI,[34],> 100000 nM
same,GI50,[35],466 nM
same,TGI,[35],3430 nM
same,GI50,[36],1040 nM
same,TGI,[36],3330 nM
same,GI50,[37],432 nM
same,TGI,[37],> 100000 nM
same,GI50,[38],256 nM
same,TGI,[38],14300 nM
same,GI50,[39],1450 nM
same,TGI,[39],4070 nM
same,GI50,[40],171 nM
same,TGI,[40],> 23300 nM
same,GI50,[41],284 nM
same,TGI,[41],15500 nM
same,GI50,[42],55.3 nM
same,TGI,[42],63900 nM
same,GI50,[43],272 nM
same,TGI,[43],1060 nM
same,GI50,[44],599 nM
same,TGI,[44],2550 nM
same,GI50,[45],54.8 nM
same,TGI,[45],> 100000 nM
same,GI50,[46],423 nM
same,TGI,[46],11000 nM
same,GI50,[47],539 nM
same,TGI,[47],6510 nM
same,GI50,[48],724 nM
same,TGI,[48],4760 nM
same,GI50,[49],381 nM
same,TGI,[49],11900 nM
same,GI50,[50],3820 nM
same,TGI,[50],> 61400 nM
same,GI50,[51],3050 nM
same,TGI,[51],> 100000 nM
same,GI50,[52],2680 nM
same,TGI,[52],> 20700 nM
same,GI50,[53],877 nM
same,TGI,[53],3660 nM
same,GI50,[54],2820 nM
same,TGI,[54],> 100000 nM
same,GI50,[55],1960 nM
same,TGI,[55],24800 nM
same,GI50,[56],351 nM
same,TGI,[56],9350 nM
same,GI50,[57],2170 nM
same,TGI,[57],6920 nM
